For one molecule, inhibition results are on record in ChEMBL document CHEMBL1128700 (J Med Chem, 1995).

Broadly, the inhibition is the share of the control response that was lost under treatment. Higher therefore signals strong suppression.

Assay [1] concerns the target Human immunodeficiency virus type 1 reverse transcriptase (Human immunodeficiency virus 1) (UniProt Q72547). Nature of the assay: Percent inhibitory activity against wild type (WT) HIV type I reverse transcriptase at a concentration of 1 uM.
The test system of assay [2] is Human immunodeficiency virus type 1 reverse transcriptase (Human immunodeficiency virus 1), Q72547 [Y181C]. Particulars: 10 uM.
Description: Percent inhibitory activity against Y181C HIV type I reverse transcriptase at a concentration of 10 uM

Regarding `Cc1ccnc2c1NC(=O)c1cccnc1N2C1CC1`, the results for the inhibition in assay [1] and in assay [2] were 85% and 59%, respectively.
